The record followed here is PubChem BioAssay AID1223 (NMMLSC, 2008).

The structures appear in SMILES notation. Activity calls are given as the source filed them.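 How the source made its calls: active means total score of at least 50 of 100, built from tracer displacement at 10 µM, potency and curve span; inactive means total score under 50.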

The target of one experiment is Estrogen receptor (Homo sapiens) (UniProt P03372). The experiment is described as follows: ERalpha binding competitors, concentration series, dose response, cell-based, Cos7 ERalpha-GFP, flow cytometry (AID 1223). The note with it: E2-Alexa633 competitive binding. A general note: A flow cytometer gives signals particle by particle.
Estrogen receptor (Homo sapiens), sequence (P03372 whole entry, looked up): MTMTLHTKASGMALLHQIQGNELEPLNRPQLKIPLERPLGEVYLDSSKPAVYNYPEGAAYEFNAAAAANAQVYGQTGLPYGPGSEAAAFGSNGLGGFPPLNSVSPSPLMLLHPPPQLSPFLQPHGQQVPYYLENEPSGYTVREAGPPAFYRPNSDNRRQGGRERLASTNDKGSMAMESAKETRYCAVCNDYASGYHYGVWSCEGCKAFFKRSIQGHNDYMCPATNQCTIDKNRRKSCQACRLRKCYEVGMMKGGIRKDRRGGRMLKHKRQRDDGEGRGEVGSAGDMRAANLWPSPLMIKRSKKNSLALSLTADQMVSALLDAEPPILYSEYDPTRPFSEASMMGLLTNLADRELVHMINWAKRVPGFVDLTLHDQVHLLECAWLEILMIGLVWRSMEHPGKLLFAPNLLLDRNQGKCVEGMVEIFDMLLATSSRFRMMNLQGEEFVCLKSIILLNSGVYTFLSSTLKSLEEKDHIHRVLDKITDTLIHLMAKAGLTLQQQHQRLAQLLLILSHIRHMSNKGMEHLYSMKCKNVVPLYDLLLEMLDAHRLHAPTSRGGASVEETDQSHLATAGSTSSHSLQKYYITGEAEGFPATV
One may read the EC50 as the concentration that produces a half-maximal response. Consider `CCn1c(=NC(=O)c2ccc(N3C(=O)CCC3=O)cc2)sc2c(OC)ccc(OC)c21`, for which the EC50 was > 10 µM (inactive).

Still in this experiment, the particulars now being: E2-Alexa633 competitive binding, at 10 µM (top of the series).
Take `N=C1C(c2nc3ccccc3[nH]2)=C(O)CN1c1ccc(CC(=O)O)cc1`: the “fluorescent ligand binding remaining” value is “inactive”. As for `Nc1ccc(-c2nc3ccc([N+](=O)[O-])cc3[nH]2)cc1`, the fluorescent ligand binding remaining was 63.9%. Consider `Cc1nn(-c2ccccc2)c(/N=C/c2ccc(O)cc2)c1-c1ccccc1`, for which the “fluorescent ligand binding remaining” value is “inactive”. In the case of `O=S(=O)(NCCc1csc(-c2cccnc2)n1)c1ccc(Cl)s1`, the “fluorescent ligand binding remaining” value was “inactive”. Turning to `C[C@H]1CCC[C@@H](O)CCC/C=C/c2cc(O)cc(O)c2C(=O)O1`, the “fluorescent ligand binding remaining” value is “inactive”. For `O=C(c1cc2ncc(Br)cn2n1)N1CCN(C(=O)c2ccco2)CC1`, the “fluorescent ligand binding remaining” value was “inactive”. Still for that read-out and setting: the result for `Oc1ccc(-c2nc(-c3ccc(O)c(O)c3)cs2)cc1` reads “inactive”. As to `CCCCCCNC(=O)c1cc(-c2ccco2)nc2ccccc12`, the “fluorescent ligand binding remaining” value is “inactive”. Regarding `CCc1ccc(-c2nn(-c3ccccc3)cc2CSC(=N)N)cc1`, the “fluorescent ligand binding remaining” value was “inactive”. For the molecule `CCCCOC(=O)c1c(C)oc2ccc(NS(=O)(=O)c3ccc4c5c(cccc35)C(=O)N4)cc12`, the “fluorescent ligand binding remaining” value was “inactive”.

Consider `O=C1NC(c2ccc(Br)cc2)Nc2sc3c(c21)CCC3` (stereo unspecified), for which the “fluorescent ligand binding remaining” value was “inactive”. As to `CCC(=O)Oc1ccc(C(CC)C(CC)c2ccc(OC(=O)CC)cc2)cc1` (stereo unspecified), the fluorescent ligand binding remaining is 19.9%. For the molecule `C/C=C(/C(=C/C)c1ccc(O)cc1)c1ccc(O)cc1`, the “fluorescent ligand binding remaining” value was “inactive”. On to `C[C@]12CC[C@@H]3c4ccc(O)cc4C(=O)C[C@H]3[C@@H]1CC[C@@H]2O`, for which the “fluorescent ligand binding remaining” value is “inactive”. The same measure, in the same setting: with `Cc1ccc(-n2c(=O)c(C#N)cc3c(=O)n4cccc(C)c4nc32)cc1` the entry was “inactive”.

Consider `CC(=O)c1ccc2c(c1)C1C=CCC1C(c1ccc(S(=O)(=O)N3CCOCC3)cc1)N2` (stereo unspecified), for which the “fluorescent ligand binding remaining” value is “inactive”. For the molecule `Cc1ccc(C(=O)N/N=C/c2ccc([N+](=O)[O-])s2)cc1`, the “fluorescent ligand binding remaining” value is “inactive”.

As for `O=C1/C(=C\c2ccco2)SC(=S)N1c1ccc(O)cc1`, the “fluorescent ligand binding remaining” value is “inactive”. `Nc1ncnc2c1ncn2C1CCC(CO)C(O)C1` (stereo unspecified): the “fluorescent ligand binding remaining” value is “inactive”. Turning to `O=C(O)c1ccc2c(c1)C1C(Cl)C(Sc3ccccc3[N+](=O)[O-])CC1C(c1cccc([N+](=O)[O-])c1)N2` (stereo unspecified), the “fluorescent ligand binding remaining” value is “inactive”. For the molecule `CCn1nnc(NC(=O)CSc2ccc(Cl)cc2)n1`, the fluorescent ligand binding remaining was 68.5%. On the same count and under the same terms, the result for `Cc1cc([N+](=O)[O-])c2c(c1C)C1C=CCC1C(c1ccccn1)N2` (stereo unspecified) reads 27.9%; that for `CCC(=O)Oc1ccc(/C(CC)=C(\CC)c2ccc(OC(=O)CC)cc2)cc1`, 22.8%. The same measure, in the same setting: with `O=C(Cc1cccs1)Nc1ccc(S(=O)(=O)Nc2ncccn2)cc1` the entry was “inactive”; with `Cc1cc(-c2nn3c(-c4ccccc4)nnc3s2)c2ccccc2n1`, “inactive”. In the case of `Oc1ccc(-c2nc3ccc4ccccc4c3c3c2CCC3)cc1O`, the “fluorescent ligand binding remaining” value was “inactive”. In the case of `Cc1cc(C)c2c(c1)NC(c1cc3c(cc1Br)OCO3)C1CC=CC21` (stereo unspecified), the “fluorescent ligand binding remaining” value was “inactive”. On the same count and under the same terms, the result for `Cc1oc2cc(O)ccc2c(=O)c1Oc1ccccc1` reads 42%; that for `COc1ccc(/C=N/NC(=O)c2nc(-c3ccccc3)cc(-c3ccccc3)n2)cc1O`, 44.4%; that for `CCNC(=O)c1ccc2c(c1)C1C3CCC(C3)C1C(c1ccccc1)N2` (stereo unspecified), “inactive”.

In the case of `CCc1nc2sc3ccccc3c(=O)c2c(=O)n1Cc1ccco1`, the “fluorescent ligand binding remaining” value was “inactive”. With `CC(=O)Nc1ccc(OC(=O)CC2SC(=O)NC2=O)cc1` (stereo unspecified), the “fluorescent ligand binding remaining” value was “inactive”. As for `COc1cccc(C2Nc3c(F)cc(Br)cc3C3C=CCC32)c1OC` (stereo unspecified), the “fluorescent ligand binding remaining” value was “inactive”. On the same count and under the same terms, the result for `COc1ccc(NC(=O)C(c2ccccc2)N(C)C(=O)c2ccc(=O)[nH]c2)cc1` (stereo unspecified) reads 50.7%.

The same experiment, now with this note: E2-Alexa633 competitive binding, at 100 µM (top of the series).
As to `O=C(O)c1ccc([N+](=O)[O-])c2c1NC(c1ccccc1)C1CC=CC21` (stereo unspecified), the “fluorescent ligand binding remaining” value is “inactive”.
